Series [1] deals with awake rats. Description: Cardiovascular measurements (heart rate, blood pressure) by telemetry in awake rats. The format is in vivo, rat. The procedure: FIG. 7 presents the time-course of the effect of Compound A on (A) heart rate and (B) mean arterial pressure in awake rats as measured by telemetry. Compound A was given at various does (1, 5, and 25 mg·kg) by oral gavage at time 0. Each data point is the mean of individual values from the number of experiments indicated in parenthesis. The initial transient (10 Minutes) increase in heart rate subsequent to the injection of vehicle or Compound A is due to the stress caused by handling of the animals.
The effects of Compound A on heart rate and blood pressure were determined in a separate group of animals as heart rate is very easily affected in the un-anesthetized animal by animal handling and blood sampling. Rats were instrumented with radiotelemetered transmitters (Data Sciences) at least 3 weeks prior to experimentation. The ECG, blood pressure and temperature were recorded and heart rate calculated using a Dataquest ART Gold system (Version 2.2; Data Sciences Intl). The system consisted of a transmitter, i.e., biopotential sensor (Model TL11M2-C50-PXT), receivers (Model RPC-1), a consolidation matrix (BCM 100), a personal computer (Compaq DeskPro Series 3574) and Dataquest 4 software. Heart rate, blood pressure and temperature were measured at 5-minute intervals. Each recording lasted 10 seconds and all cardiac cycles within this period were averaged.

Another series concerns C57BL/J6 mice. In words: Hyperinsulinemic euglycemic clamp in C57BL/J6 mice on high fat diet for 12 weeks. The format is in vivo, mouse. To be noted: 2.5 mg/kg or 5.0 mg/kg ip 15 min prior to clamp.
For series [2], the system named is awake rats. In words: Insulin dose response to reduce FFA with and without Compound A in awake rats. The format is in vivo, rat. The procedure: FIG. 6 graphically represents how Compound A potentates the effect of insulin in reducing FFA levels. Shown are the dose response curves for the effect of insulin to reduce FFA obtained in the absence and presence of Compound A (0.5 mg/kg) in awake rats. Both insulin and Compound A were given via IP injection. Each data point is the mean±SEM of the maximal (peak effect) percent decrease in FFA levels from baseline from three to five rats.
The anti-lipolytic effects of Compound A were studied in awake rats. Animals were fasted overnight before experimental use. On the day of the experiment, animals were put in metabolic cages and left undisturbed to acclimate to the environment for 1-2 hrs. An infusion set (21 G×¾″, 0.8×19 mm U.T.W., 3½″, 9 cm tubing, volume 0.15 ml) was connected to the arterial catheter for blood sampling. A 1% sodium citrate saline solution was used to flush the lines. A pre-treatment blood sample was obtained from each animal to determine baseline values for FFA and TG. Compound A was given via oral gavage, sc injection, iv injection, or iv infusion, as described, for each different series of experiments. Blood samples were collected into serum separator tubes (Becton Dickinson, Franklin Lakes, N.J.) at pre-determined times, Blood was allowed to clot, and then centrifuged at 8000 rpm for 4 min at 4° C. The serum was stored at −80° C. and was thawed at 4° C. for determinations of FFA and TG contents.
The effect of insulin (0.005-1 U/kg) to reduce serum FFA was determined in the absence and presence of a single dose (0.5 mg/kg) of Compound A (FIG. 6). Baseline FFA levels before insulin administration in vehicle and Compound A treated groups were 0.84±0.01 and 0.92±0.02 mM, respectively. […] The insulin dose response to reduce FFA levels was then repeated in the presence of Compound A (0.5 mg/kg). Compound A alone (0.5 mg/kg) caused an 18% decrease in FFA levels. The doses of insulin that cause 50% decrease (ED50) in FFA levels in the absence and presence of Compound A were 0.4 and 0.1 U/kg, respectively.

Structures are written as SMILES. Entries after “also recorded” stand apart in the source; their conditions may differ.

Protocol for C57BL/J6 mice: C57BL/J6 mice were maintained on normal chow or a HF diet (Bovine Lard, 23 wt/wt %, 44 energy % provided by the lard) for 12 weeks to induce insulin resistance. At the end of 12 weeks a hyperinsulinemic euglycemic clamp analysis was performed to measure insulin sensitivity in the absence and presence of Compound A. Compound A was given via an ip injection 15 minutes before the clamp protocol was started. After an overnight fast, glucose turnover studies were performed as described previously (6; 11). Briefly, animals were anesthetized; an infusion needle was placed in one of the tail veins. Thereafter, a bolus of insulin was given and a hyperinsulinemic clamp was started by continuous infusion of insulin. Blood samples were taken every 10 minutes (tail bleeding) to monitor plasma glucose levels. A variable infusion of 12.5% D-glucose (in PBS) solution was started at time 0 and adjusted to maintain blood glucose at ˜6.0 mM. When steady state glucose levels were reached (approximately 1 hour after start of the insulin infusion) a final blood sample was taken (for measurement of plasma insulin) and the hyperinsulinemic euglycemic clamp was terminated.

Regarding `O[C@@H]1[C@H](O)[C@@H](CSc2ccccc2F)O[C@H]1n1cnc2c(N[C@@H]3CCC[C@H]3O)ncnc21` [Compound A, 2-{6-[((1R,2R)-2-hydroxycyclopentyl)amino]purin-9-yl}(4S,5S,2R,3R)-5-[(2-fluorophenylthio)methyl]oxolane-3,4-diol], the “decrease in heart rate (calculated as area under the curve)” value with awake rats [1] (25 mg/kg oral gavage) is on record as 13±1%. In the series with awake rats [1] (50 mg/kg (data not shown)), the “effect on heart rate on increasing the dose” value is given as “no further decrease”. Moreover, the “effect on heart rate” value in the series on awake rats [1] (1 and 5 mg/kg oral gavage) is listed as “did not have a significant effect”. Moreover, the “effect on blood pressure” value with awake rats [1] (at the doses used (1, 5, 25 mg/kg oral gavage)) was “did not have any significant effect”. Also, in the series on C57BL/J6 mice, the “insulin-mediated glucose disposal / glucose infusion rate (GIR) vs untreated HF mice” value is on record as “significant differences (p<0.01); also recorded: significantly greater (p<0.01)”. Moreover, the “decrease in FFA levels by Compound A alone” value in the series on awake rats [2] (0.5 mg/kg IP) was 18%. Also, the “leftward shift of the insulin dose-response to lower FFA” value in the series with awake rats [2] (Compound A 0.5 mg/kg) is 4 fold.

The record behind these values is US7939509B2, “Partial and full agonists of A1 adenosine receptors” (Gilead Sciences, Inc., priority 2002, dated 2011).
